Read-outs that look alike come from different tables or passages of the source.
Experiments:
Assay type in all cases: in vivo
[1] = tested on: Diamondback moth (Plutella xylostella (Linnaeus)); assay: Test against diamondback moth, leaf disc dip; details: second-instar larvae, after 72 hours
Description: (§1) The test compound was dissolved in an appropriate solvent such as N,N-dimethylformamide, and then diluted with 0.2% aqueous solution of Tween 80 to the desired concentration, Those without the test compounds were set as blank controls, the treatments were replicated 3 times. The cabbage leaves were perforated to get 18 mm diameter leaf discs by a hole puncher, 5 leaf discs were dipped in the test solution for 10 seconds and then put into a Petri dish (diameter 90 mm) padded with moisturizing filter paper, after air-drying, the leaf discs were infested with no less than ten second-instar larvae of test insects which were starved for 4 hours, and then the dish was covered and placed in a chamber for culture. After 72 hours, the number of dead insects was investigated, the mortality was calculated, and the regression equation, correlation coefficient (r) and the median lethal concentration (LC50) were obtained using Probit analysis method.

[2] = tested on: Spodoptera litura (Fabricius); assay: Test against Spodoptera litura, leaf disc dip; details: after 72 hours; for Activity against Spodoptera litura (in words): second-instar larvae
Description: as §1

Aphis fabae = assay: Test against aphid, leaf dip method (Aphis fabae); details: foliar; for mortality at 12.5 µg/mL: 12.5 mg/L; for mortality at 12.5 µg/mL / mortality at 50 µg/mL / mortality at 200 µg/mL / mortality at 500 µg/mL: read-out: Activity (mortality) level against Aphis fabae; for mortality at 200 µg/mL: 200 mg/L
Summary of the method: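 Horsebean seedlings carrying at least twenty 3-day-old Aphis fabae dipped 5 seconds in compound solutions (DMF, diluted in 0.2% aqueous Tween 80), three replicates with solvent blank. Live and dead insects counted after 24 hours.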

[3] = tested on: Armyworm (Mythimna separata (Walker)); assay: Test against armyworm, Potter tower method; details: for mortality at 12.5 µg/mL / mortality at 50 µg/mL / mortality at 500 µg/mL: Mythimna separata, read-out: Activity (mortality) level against armyworm; for Activity against armyworm, further screening (in words): compared with chlorantraniliprole (D1)
Summary of the method: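 Third-instar larvae, ten per dish on corn leaf fragments, were sprayed in a Potter tower with 1 mL of compound in DMF diluted in 0.2% Tween 80, in triplicate. Mortality was scored after 72 h and reported as mean mortality against a solvent blank.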

[4] = 12.5 mg/L, third-instar larvae, after 72 hours
[5] = 50 mg/L, third-instar larvae, after 72 hours
[6] = 500 mg/L, third-instar larvae, after 72 hours

Row | Compound | Activity against diamondback moth (in words) [1] | Activity against Spodoptera litura (in words) [2] | mortality at 12.5 µg/mL (Aphis fabae; after 24 hours) [%] | mortality at 50 µg/mL (Aphis fabae; 50 mg/L, after 24 hours) [%] | mortality at 200 µg/mL (Aphis fabae; after 24 hours) [%] | mortality at 500 µg/mL (Aphis fabae; 500 mg/L, after 24 hours) [%] | mortality at 12.5 µg/mL [3, 4] [%] | mortality at 50 µg/mL [3, 5] [%] | mortality at 500 µg/mL [3, 6] [%] | Activity against armyworm, further screening (in words) [3] | Median lethal concentration LC50 against Spodoptera litura, compared with D1 ([2]; same conditions) | LC50 (Aphis fabae; further test, read-out: LC50 against Aphis fabae) [µg/mL] | mortality at 50 µg/mL (Aphis fabae; 24 h) [%] | mortality at 500 µg/mL (Aphis fabae; 24 h) [%] | Activity against armyworm ([3]; 1.25 mg/L) | mortality at 12.5 µg/mL ([3]; 72 h) [%] | mortality at 50 µg/mL ([3]; 72 h) [%] | mortality at 500 µg/mL ([3]; 72 h) [%]
1 | CCN(C)C(=O)c1cc(Cl)cc(Cl)c1N(C)C(=O)c1cc(Br)nn1-c1ncccc1Cl [Compound 12, N-[2,4-dichloro-6-[(methyl(ethyl)amino)carbonyl]phenyl]-N-methyl-1-(3-chloro-2-pyridinyl)-3-bromo-1H-pyrazole-5-carboxamide] | high activity at very low concentration | high activity at very low concentration | 90 to 100 | 90 to 100 | 90 to 100 | 90 to 100 | 90 to 100 | 90 to 100 | 90 to 100 | excellent activity | – | – | – | – | – | – | – | –
2 | CCN(CC)C(=O)c1cc(Cl)cc(Cl)c1N(C)C(=O)c1cc(Br)nn1-c1ncccc1Cl [Compound 15, N-[2,4-dichloro-6-[(diethylamino)carbonyl]phenyl]-N-methyl-1-(3-chloro-2-pyridinyl)-3-bromo-1H-pyrazole-5-carboxamide] | high activity at very low concentration | high activity at very low concentration | 90 to 100 | 90 to 100 | 90 to 100 | 90 to 100 | 90 to 100 | 90 to 100 | 90 to 100 | excellent activity | lower than that of chlorantraniliprole (D1) | < 1 | – | – | – | – | – | –
3 | CCN(C)C(=O)c1cc(Cl)cc(Br)c1N(C)C(=O)c1cc(Br)nn1-c1ncccc1Cl [Compound 32, N-[2-bromo-4-chloro-6-[(methyl(ethyl)amino)carbonyl]phenyl]-N-methyl-1-(3-chloro-2-pyridinyl)-3-bromo-1H-pyrazole-5-carboxamide] | high activity at very low concentration | high activity at very low concentration | 90 to 100 | 90 to 100 | 90 to 100 | 90 to 100 | 90 to 100 | 90 to 100 | 90 to 100 | excellent activity | – | – | – | – | – | – | – | –
4 | CNC(=O)c1cc(Cl)cc(C)c1NC(=O)c1cc(Br)nn1-c1ncccc1Cl [Compound D1, chlorantraniliprole, reference compound] | high activity at very low concentration | high activity at very low concentration | – | – | – | – | – | – | – | – | – | – | 0 to 50 | 90 to 100 | less than 50% | 90 to 100 | 90 to 100 | 90 to 100
